Source: patent publication US20060165672A1, “Fatigue reducing agent” (KANEKA CORPORATION, priority 2003, published 2006)

How the values were obtained:
[1] = Coenzyme Q level in the muscle after oral administration for 5 days (HPLC); assay type: in vivo, male SD rats
Experimental: (§1) Reduced coenzyme Q10 obtained in the Reference Example 1 (containing about 1% of oxidized coenzyme Q10) was dissolved in soybean oil solution (reduced coenzyme Q10/soybean oil solution=20 mg/ml) and orally administered to male SD rats (6 weeks of age) at a dose of 100 mg/kg of reduced coenzyme Q10 (containing about 1% of oxidized coenzyme Q10), once a day for 5 days. Five days later, the muscles of the femoral region were collected, and coenzyme Q level in the muscle was measured. The measurement of the coenzyme Q level in the muscle was performed using HPLC. The harvested rat muscle (0.2 g) was homogenized after the addition of coenzyme Q7 (0.003 mg), ethanol (1 ml), distilled water (1 ml) and ferric chloride (0.01%), and then hexane (3 ml) was added. Coenzyme Q10 was extracted from the homogenate after shaking. After repeating this extraction operation twice, the extract was brought to dryness by evaporating hexane out, re-dissolved in 0.25 ml ethanol and injected to HPLC. HPLC condition is as follows; column: YMC-Pack (ODS-A303), detection wavelength: 275 nm, mobile phase: methanol (88%), hexane (12%), flow rate: 1 ml/min. The measurement of the ratio of reduced coenzyme Q10 and oxidized coenzyme Q10 in the muscle was carried out as follows. The harvested rat muscle (0.2 g) was homogenized after the addition of distilled water (0.2 ml) and ethanol (0.8 ml), and the homogenate was extracted by adding hexane (1.2 ml). After evaporating hexane under a stream of nitrogen, the extract was re-dissolved in ethanol (0.2 ml) and injected to HPLC. The condition of the HPLC operation was the same as the above except that the electrochemical detector was used. Soybean oil was administered to the control group.
Similarly oxidized coenzyme Q10 was administered and then the coenzyme Q level in the muscle was measured.

[2] = tested on: male SD rats (61 to 63 weeks of age); test: Tread mill test in aged rats (maximum running time, crossover); assay type: in vivo, rat; settings: for Maximum running time of aged rats (in words) / Maximum Running Time, Time prolonged / Maximum Running Time, After administration, relative to solvent control (100): 300 mg/kg oral; for Maximum Running Time, Time prolonged: after minus before administration; for Maximum Running Time, After administration, relative to solvent control (100) / Maximum Running Time, Before administration, relative to solvent control (100): value in parentheses; for Maximum Running Time, After administration: after 300 mg/kg oral dose; for Maximum Running Time, After administration / Maximum Running Time, Before administration: crossover; for Maximum Running Time, Before administration: baseline before 300 mg/kg oral dose
Experimental: (§2) The anti-fatigue effect of reduced coenzyme Q10 (note that it contained about 1% of oxidized coenzyme Q10) was evaluated in male SD rats (7 weeks of age, n=10) using a tread mill. A rat was forced to run at a speed of 10 m/min on the tread mill machine (Type NK-73-4, Natsume Seisakusho Co., Ltd.). Then the speed was increased stepwise by 5 m/min in every 3 min, and the time when the rat could no longer run was measured (the maximum running time). The soybean oil solution of reduced coenzyme Q10 according to the Reference Example 1 (reduced coenzyme Q10/soybean oil solution=20 mg/ml) was prepared as a test substance and orally administered to rats as reduced coenzyme Q10 (note that it contained about 1% of oxidized coenzyme Q10) with a dose of 300 mg/kg. The maximum running times were measured before administration and 2 hours after administration and a prolongation of the maximum running time was calculated. Soybean oil was administered to the control group.
The anti-fatigue effect of reduced coenzyme Q10 (containing about 1% of oxidized coenzyme Q10) was evaluated in male SD rats (61 to 63 weeks of age, n=7) in a manner similar to (Example 3). This experiment was performed using a crossover method. […]

[3] = Level of reduced coenzyme Q in the muscle after oral administration (HPLC, electrochemical detector); assay type: in vivo, male SD rats; settings: for Intramuscular level of reduced coenzyme Q (in words): after administration
Experimental: as §1
The level of reduced coenzyme Q in the muscle was measured after administration of reduced coenzyme Q10 in a manner similar to (Example 1).
The level of reduced coenzyme Q in the muscle was measured after administration of oxidized coenzyme Q10 in a manner similar to (Comparative Example 1).

[4] = tested on: male SD rats (7 weeks of age); test: Tread mill test in young rats (maximum running time); assay type: in vivo, rat; settings: for Maximum Running Time, Time prolonged: after minus before administration; for Maximum Running Time, After administration, relative to solvent control (100) / Maximum Running Time, Time prolonged, relative to solvent control (100) / Maximum Running Time, Before administration, relative to solvent control (100): value in parentheses; for Maximum Running Time, After administration: 2 hours after 300 mg/kg oral dose; for Maximum Running Time, Before administration: baseline before 300 mg/kg oral dose
Experimental: as §2
The anti-fatigue effect of oxidized coenzyme Q10 was evaluated in young rats in a manner similar to (Example 3).

[5] = compared with oxidized coenzyme Q10, Japanese Patent Laid-Open No. 10-109933; cited from earlier work
[6] = femoral muscle, 100 mg/kg orally once a day for 5 days, rats 6 weeks of age
[7] = value in parentheses, control group = 100, 100 mg/kg orally, 5 days
[8] = femoral muscle, 100 mg/kg orally once a day for 5 days
[9] = value in parentheses, control group = 100

Row | Structure (SMILES) | Level of Coenzyme Q in Muscle, Q9 [1, 6] | Level of Coenzyme Q in Muscle, Total CoQ [1, 6] | Level of Coenzyme Q in Muscle, Q9, relative to control group (100) [1, 7] | Level of Coenzyme Q in Muscle, Total CoQ, relative to control group (100) [1, 7] | Maximum running time of aged rats (in words) [2] | Maximum Running Time, Time prolonged [2] | Maximum Running Time, After administration, relative to solvent control (100) [2] | Maximum Running Time, After administration [2] | Maximum Running Time, Before administration [2] | Maximum Running Time, Before administration, relative to solvent control (100) [2] | Intramuscular level of reduced coenzyme Q (in words) [3] | Level of Reduced Coenzyme Q in Muscle, Q9 [3, 8] | Level of Reduced Coenzyme Q in Muscle, Total CoQ [3, 8] | Level of Reduced Coenzyme Q in Muscle, Q9, relative to control group (100) [3, 9] | Level of Reduced Coenzyme Q in Muscle, Total CoQ, relative to control group (100) [3, 9] | Maximum Running Time, Time prolonged ([4]; 300 mg/kg oral) | Maximum Running Time, After administration, relative to solvent control (100) ([4]; 300 mg/kg oral) | Maximum Running Time, Time prolonged, relative to solvent control (100) ([4]; 300 mg/kg oral) | Maximum Running Time, After administration [4] | Maximum Running Time, Before administration [4] | other results
1 | COC1=C(OC)C(=O)C(C/C=C(\C)CC/C=C(\C)CC/C=C(\C)CC/C=C(\C)CC/C=C(\C)CC/C=C(\C)CC/C=C(\C)CC/C=C(\C)CC/C=C(\C)CCC=C(C)C)=C(C)C1=O [Oxidized Coenzyme Q10, oxidized coenzyme Q10, reference compound] | 12.84 ± 2.03 µg/g | 14.18 ± 2.18 µg/g | (133) | (137) | no prolongation effect | 14 ± 43 s | (105) | 875 ± 108 s | 861 ± 123 s | (100) | decreased | 2.34 ± 0.42 µg/g | 2.45 ± 0.44 µg/g | (71*) | (68*) | 190 ± 76 s | (108**) | (339**) | 1733 ± 107 s | 1543 ± 99 s | Level of Reduced Coenzyme Q in Muscle, Q10, relative to control group (100) ([3]; rat, in vivo): (34**); Anti-fatigue effect in young rats (in words, compared with reduced coenzyme Q10) ([4]; 300 mg/kg oral): about the same as that of reduced coenzyme Q10; Maximum Running Time, Before administration, relative to solvent control (100) [4]: (100)
2 | COc1c(O)c(C)c(C/C=C(\C)CC/C=C(\C)CC/C=C(\C)CC/C=C(\C)CC/C=C(\C)CC/C=C(\C)CC/C=C(\C)CC/C=C(\C)CC/C=C(\C)CCC=C(C)C)c(O)c1OC [Reduced Coenzyme Q10, reduced coenzyme Q10] | 15.82 ± 2.89 µg/g | 17.39 ± 3.09 µg/g | (164*) | (168*) | significantly prolonged | 97 ± 28 s | (115) | 958 ± 52 s | 861 ± 123 s | (100) | increased | 5.32 ± 1.07 µg/g | 5.71 ± 1.16 µg/g | (162*) | (159*) | 196 ± 127 s | (108*) | (349**) | 1719 ± 160 s | 1523 ± 97 s | Endogenous coenzyme Q (in words) ([1]; after administration, endogenous = synthesized in vivo): increase of endogenous coenzyme Q; Level of Coenzyme Q in Muscle, Q10 [1, 6]: 1.57 ± 0.21 µg/g; Level of Coenzyme Q in Muscle, Q10, relative to control group (100) [1, 7]: (215**); Plasma level of coenzyme Q after oral administration (in words) [5]: raised the plasma level of coenzyme Q more than oral administration of oxidized coenzyme Q10; Level of Reduced Coenzyme Q in Muscle, Q10 [3, 8]: 0.39 ± 0.24 µg/g; Level of Reduced Coenzyme Q in Muscle, Q10, relative to control group (100) [3, 9]: (122); Maximum running time of rats (in words) ([4]; 300 mg/kg oral): significantly prolonged; Maximum Running Time, Before administration, relative to solvent control (100) [4]: (99)
